Source: US9643999B2 (Bristol-Myers Squibb Company, priority 2012, dated 2017)

How the values were obtained:
[1] = tested on: HCV genotype 1a replicon; assay: HCV replicon luciferase reporter assay, genotype 1a (LE_1a); format: cell-based; conditions: Hepatitis C virus, 72 h; HUH-7 cells, genotype 1a H77 replicon, 3 days incubation, Renilla luciferase; read-out: LE_1a (EC50, range)
[2] = tested on: HCV genotype 1b replicon; assay: HCV replicon luciferase reporter assay, genotype 1b (LE_1b); format: cell-based; conditions: Hepatitis C virus, 72 h; HUH-7 cells, genotype 1b (Con1) replicon, 3 days incubation, Renilla luciferase; read-out: LE_1b (EC50, range)
Summary of the method: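 HUH-7 cells stably carrying Renilla luciferase replicons (1b Con1 with S1179I; 1a H77 with P1496L and S2204I), 3.0×10^3 cells/well in 4% FCS, 0.5% DMSO, twenty-point 3-fold titration. After 3 days at 37° C., luminescence read with EnduRen (7.5 μM final, 2 hrs). EC50 from four-parameter logistic fit; CC50 from multiplexed Cell Titer-Blue (8 hrs).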

Compound | EC50 [1] [nM] | EC50 [2] [nM]
[2H]C([2H])([2H])C1(S(=O)(=O)NC(=O)[C@@]23C[C@H]2/C=C\CC[C@@H](C)C[C@@H](CC)[C@H](NC(=O)OC(C)(C)C(C)(F)F)C(=O)N2C[C@H](Oc4nccc5cc(OCC)c(F)cc45)C[C@H]2C(=O)N3)CC1 [Compound 5519] | 1.01 to 5 | 0.51 to 1
CC[C@@H]1C[C@H](C)CC/C=C\[C@@H]2C[C@@]2(C(=O)NS(=O)(=O)C2CC2)NC(=O)[C@@H]2C[C@@H](Oc3ncc(-c4cnco4)c4cc(OC)ccc34)CN2C(=O)[C@H]1NC(=O)OC(C)(C)C(F)(F)F [Compound 4293] | 1.01 to 5 | 0.51 to 1
CC[C@@H]1C[C@H](C)CC/C=C\[C@@H]2C[C@@]2(C(=O)NS(=O)(=O)C2(C)CC2)NC(=O)[C@@H]2C[C@@H](Oc3ncc(-c4cnco4)c4cc(OC)ccc34)CN2C(=O)[C@H]1NC(=O)OC(C)(C)C [Compound 4285, tert-butyl((2R,6S,7R,9R,13aS,14aR,16aS,Z)-7-ethyl-2-((6-methoxy-4-(oxazol-5-yl)isoquinolin-1-yl)oxy)-9-methyl-14a-(((1-methylcyclopropyl)sulfonyl)carbamoyl)-5,16-dioxo-1,2,3,5,6,7,8,9,10,11,13a,14,14a,15,16,16a-hexadecahydrocyclopropa[e]pyrrolo[1,2-a][1,4]diazacyclopentadecin-6-yl)carbamate] | 1.01 to 5 | 1.01 to 5
CC[C@@H]1C[C@H](C)CC/C=C\[C@@H]2C[C@@]2(C(=O)NS(=O)(=O)C2(C)CC2)NC(=O)[C@@H]2C[C@@H](Oc3cc(-n4ccnc4)nc4cc(OC)ccc34)CN2C(=O)[C@H]1NC(=O)OC(C)(C)C(F)(F)F [Compound 4281] | 5.01 to 35 | 5.01 to 35
CC[C@@H]1C[C@H](C)CC/C=C\[C@@H]2C[C@@]2(C(=O)NS(=O)(=O)C2(C)CC2)NC(=O)[C@@H]2C[C@@H](Oc3ncc(-c4nc(C(C)(C)C)cs4)c4cc(OC)ccc34)CN2C(=O)[C@H]1NC(=O)OC(C)(C)C(F)(F)F [Compound 4275] | 5.01 to 35 | 5.01 to 35
CC[C@@H]1C[C@H](C)CC/C=C\[C@@H]2C[C@@]2(C(=O)NS(=O)(=O)C2(C)CC2)NC(=O)[C@@H]2C[C@@H](Oc3nc4nccn4c4ccc(Cl)cc34)CN2C(=O)[C@H]1NC(=O)OC(C)(C)C(F)(F)F [Compound 6133] | 5.01 to 35 | 0.51 to 1
